According to patent publication US12195461B2, “Pyrrolo-dipyridine compounds” (OssiFi Therapeutics LLC, priority 2018, dated 2025):

Columns and labels:
[1] = Metabolic stability in pooled human liver microsomes; type: in vitro ADME; conditions: 0.1 μM compound, human liver microsomes 0.1 mg/mL, NADPH, 37° C., 60 minutes
Protocol: Compounds of the present invention (0.1 μM) were incubated with microsomes at 37° C. for a total of 60 minutes. The reaction contained pooled human liver microsomal protein (0.1 mg/mL) in potassium phosphate buffer with NADPH. At the indicated time points (0, 5, 15, 30 and 60 minutes). Samples were analyzed by LC/MS/MS and remaining parent drug was calculated using Microsoft Excel (2007). Obach R S, Drug Metab Dispos. 27(11):1350-1359 (1999).

sclerostin = target: T1, sclerostin (Homo sapiens, UniProt Q9BQB4); assay: Modulation of sclerostin/Wnt activity: restoring Wnt3a signaling in the presence of sclerostin; type: cell-based; set-up: key to Sclerostin Inhibition Assay; improvement over sclerostin alone: − indicates no improvement over sclerostin protein alone; + indicates an IC100 >10 μM; ++ indicates an IC100 <10 μM; conditions: for Sclerostin Inhibition Assay; improvement over sclerostin alone: IC100 class, Wnt3a signaling in human embryonic cells in the presence of sclerostin
T1 construct: host or cells: human embryonic cells (assay cells)
T1 sequence (Q9BQB4 24-213): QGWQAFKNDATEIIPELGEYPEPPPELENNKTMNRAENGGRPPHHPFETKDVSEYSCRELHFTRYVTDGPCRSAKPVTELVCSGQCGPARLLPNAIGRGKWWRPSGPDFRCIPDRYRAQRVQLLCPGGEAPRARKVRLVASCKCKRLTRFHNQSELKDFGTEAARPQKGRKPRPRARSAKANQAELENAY
Protocol: Compounds synthesized in accordance with the methods of Examples 1-6 were assayed for their ability to restore Wnt signaling in the presence of sclerostin consistent with a known sclerostin antagonist, sclerostin Mab. See, Ellies et al., J Bone Miner Res 21:1738-1749 (2006). […] The addition of a known sclerostin antagonist inhibited sclerostin inhibition of Wnt3a signaling, thus restoring Wnt3a signaling in the cell (IC100 at 10 μM) (data not shown).

[2] = tested on: MC3T3-E1 (mouse calvarial) osteoblast cells; assay: Bone formation assay: rescue of sclerostin inhibition of mineralization (total calcium); type: cell-based; set-up: key to Sclerostin Inhibition of Mineralization; improvement over sclerostin alone: − indicates no improvement over sclerostin protein alone; + indicates an IC100 >10 μM; ++ indicates an IC100 <10 μM; conditions: for Sclerostin Inhibition of Mineralization; improvement over sclerostin alone: IC100 class, calcium concentration
Protocol: Mineralization (crystalline calcium phosphate formation) represents an in vitro model of bone formation. Using an assay in which the amount of mineralization is quantified by measuring total calcium after solubilization of deposited crystalline calcium phosphate, sclerostin was previously shown to inhibit mineralization in MC3T3-E1 (mouse calvarial) osteoblast cells. Li et al., J Bone Miner Res 24:578-588 (2008). Following the protocol described in Li et al., Compounds were assayed for their ability to rescue the inhibition of mineralization by sclerostin in MC3T3 osteoblast cells. […] Addition of a compound of Examples 1-6 neutralized sclerostin-mediated inhibition of mineralization, as reflected by the increase in calcium concentration.

Metabolic Stability [1]	Sclerostin Inhibition Assay; improvement over sclerostin alone (sclerostin)	effect on Wnt3a signaling (in words) (sclerostin; human embryonic cells)	Compound	Sclerostin Inhibition of Mineralization; improvement over sclerostin alone [2]	effect on mineralization, as measured by calcium concentration (in words) [2]
++ (++ indicates a stability >1x)	+ (+ indicates an IC100 >10 μM)		Cl.FC(F)(F)c1nccc2c3ccncc3n(CCN3CCOCC3)c12 [Example 1, 4-(2-(1-(Trifluoromethyl)-9H-pyrrolo[2,3-c:5,4-c′]dipyridin-9-yl)ethyl)morpholine hydrochloride salt]	+ (+ indicates an IC100 >10 μM)	
++ (++ indicates a stability >1x)	−		Cl.[O-][n+]1ccc2c3ccnc(C(F)(F)F)c3n(CCN3CCOCC3)c2c1 [Example 2, 9-(2-Morpholinoethyl)-8-(trifluoromethyl)-9H-pyrrolo[2,3-c:5,4-c′]dipyridine 2-oxide hydrochloride salt]	−	
++ (++ indicates a stability >1x)	++ (++ indicates an IC100 <10 μM)		COc1cc2c(cn1)c1ccnc(C(F)(F)F)c1n2CCN1CCOCC1.Cl [Example 4, 4-(2-(3-Methoxy-6-(trifluoromethyl)-5H-pyrrolo[2,3-c:4,5-c′]dipyridin-5-yl)ethyl)morpholine hydrochloride salt]	++ (++ indicates an IC100 <10 μM)	
	−	antagonized Wnt3a signaling	Sclerostin protein: sclerostin protein, antagonizes Wnt3a signaling and inhibits mineralization; the assays' inhibitory stimulus and baseline	−	significant decrease in mineralization

Continued, compound first:

Compound	Metabolic Stability [1]	Sclerostin Inhibition Assay; improvement over sclerostin alone (sclerostin)	effect on Wnt3a signaling (in words) (sclerostin; human embryonic cells)	Sclerostin Inhibition of Mineralization; improvement over sclerostin alone [2]	effect on mineralization, as measured by calcium concentration (in words) [2]
COc1ccc2c3ccnc(C(F)(F)F)c3n(CCN3CCOCC3)c2n1.Cl [Example 3, 4-(2-(2-Methoxy-8-(trifluoromethyl)-9H-pyrrolo[2,3-b:5,4-c′]dipyridin-9-yl)ethyl)morpholine hydrochloride salt]	++ (++ indicates a stability >1x)	++ (++ indicates an IC100 <10 μM)		++ (++ indicates an IC100 <10 μM)	
COc1ncc2c3ccnc(C(F)(F)F)c3n(CCN3CCOCC3)c2n1 [Example 5, 4-(2-(2-Methoxy-8-(trifluoromethyl)-9H-pyrido[4′,3′:4,5]pyrrolo[2,3-d]pyrimidin-9-yl)ethyl)morpholine]	++ (++ indicates a stability >1x)	++ (++ indicates an IC100 <10 μM)		++ (++ indicates an IC100 <10 μM)	
COc1nc2c(cc1F)c1ccnc(C(F)(F)F)c1n2CCN1CCOCC1.Cl [Example 6, 4-(2-(3-Fluoro-2-methoxy-8-(trifluoromethyl)-9H-pyrrolo[2,3-b:5,4-c′]dipyridin-9-yl)ethyl)morpholine hydrochloride salt]	++ (++ indicates a stability >1x)	++ (++ indicates an IC100 <10 μM)		++ (++ indicates an IC100 <10 μM)	
